Columns and labels:
[1] = target: T1, 5-hydroxytryptamine receptor 1A (Homo sapiens) (UniProt P08908); experiment: Agonist efficacy of [35S]GTP-gamma-S, binding to 5-hydroxytryptamine 1A receptor compared with 5-HT; assay type: functional
T1 sequence (whole entry): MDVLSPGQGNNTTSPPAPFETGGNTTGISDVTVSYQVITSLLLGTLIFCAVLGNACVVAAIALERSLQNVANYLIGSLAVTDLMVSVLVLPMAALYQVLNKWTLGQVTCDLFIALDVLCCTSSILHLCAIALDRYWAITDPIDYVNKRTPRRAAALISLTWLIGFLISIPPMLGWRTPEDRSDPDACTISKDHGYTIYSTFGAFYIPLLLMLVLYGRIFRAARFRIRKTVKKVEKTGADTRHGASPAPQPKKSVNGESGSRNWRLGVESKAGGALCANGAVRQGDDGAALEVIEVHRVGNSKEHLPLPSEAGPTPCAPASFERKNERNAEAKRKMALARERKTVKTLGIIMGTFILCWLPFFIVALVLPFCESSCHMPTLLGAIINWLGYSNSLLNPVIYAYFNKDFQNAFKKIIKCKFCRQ

[2] = target: T2, 5-hydroxytryptamine receptor 1A (Rattus norvegicus) (UniProt P19327)
T2 sequence (whole entry): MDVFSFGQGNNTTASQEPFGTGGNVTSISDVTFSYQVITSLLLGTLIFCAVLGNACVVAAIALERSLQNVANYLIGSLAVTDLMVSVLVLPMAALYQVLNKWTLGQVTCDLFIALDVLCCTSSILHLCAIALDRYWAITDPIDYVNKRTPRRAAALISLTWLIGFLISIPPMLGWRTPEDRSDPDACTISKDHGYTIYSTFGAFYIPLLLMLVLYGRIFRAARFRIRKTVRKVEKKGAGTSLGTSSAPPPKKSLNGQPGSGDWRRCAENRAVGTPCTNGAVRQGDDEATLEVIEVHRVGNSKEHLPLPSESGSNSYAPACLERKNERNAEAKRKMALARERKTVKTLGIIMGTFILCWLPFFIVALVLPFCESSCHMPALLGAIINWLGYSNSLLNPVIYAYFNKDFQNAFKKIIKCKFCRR

[3] = Selectivity ratio towards Alpha-1 adrenergic receptor to human 5-hydroxytryptamine 1A receptor
[4] = target: T3, 5-hydroxytryptamine receptor 1A (Homo sapiens, UniProt P08908); experiment: Binding affinity at human 5-hydroxytryptamine 1A receptor by inhibition of [3H]8-OH-DPAT binding in Chinese hamster ovary cell line; assay type: cell-based
T3 sequence (P08908 whole entry): T1 sequence (whole entry)

[5] = target: T2, 5-hydroxytryptamine receptor 1A (Rattus norvegicus); experiment: Antagonistic activity at postsynaptic 5-hydroxytryptamine 1A receptor was measured by its ability to inhibit hypothermia elicited by s.c. administration of 8-OH-DPAT in rat;ranges from (0.40-4); assay type: functional, organism-based
[6] = target: T4, Adrenergic receptor alpha-1 (Rattus norvegicus, UniProt P15823+P23944+P43140); experiment: Binding affinity at Alpha-1 adrenergic receptor by inhibition of [3H]-prazosin binding to rat cortex
T4 sequence (P15823 whole entry): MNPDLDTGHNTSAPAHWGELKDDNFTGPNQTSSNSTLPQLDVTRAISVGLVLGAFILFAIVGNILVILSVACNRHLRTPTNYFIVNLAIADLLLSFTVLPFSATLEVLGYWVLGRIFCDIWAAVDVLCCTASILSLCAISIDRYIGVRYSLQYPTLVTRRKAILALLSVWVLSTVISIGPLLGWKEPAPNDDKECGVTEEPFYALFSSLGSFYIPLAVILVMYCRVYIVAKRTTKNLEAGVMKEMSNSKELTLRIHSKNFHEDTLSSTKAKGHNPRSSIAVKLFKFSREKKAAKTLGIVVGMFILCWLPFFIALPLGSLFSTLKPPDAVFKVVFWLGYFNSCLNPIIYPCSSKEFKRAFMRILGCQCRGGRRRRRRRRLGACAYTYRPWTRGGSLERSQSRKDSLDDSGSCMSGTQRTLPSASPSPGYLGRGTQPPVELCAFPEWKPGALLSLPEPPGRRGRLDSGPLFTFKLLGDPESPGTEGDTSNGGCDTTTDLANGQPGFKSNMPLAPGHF
T4 sequence (P23944 whole entry): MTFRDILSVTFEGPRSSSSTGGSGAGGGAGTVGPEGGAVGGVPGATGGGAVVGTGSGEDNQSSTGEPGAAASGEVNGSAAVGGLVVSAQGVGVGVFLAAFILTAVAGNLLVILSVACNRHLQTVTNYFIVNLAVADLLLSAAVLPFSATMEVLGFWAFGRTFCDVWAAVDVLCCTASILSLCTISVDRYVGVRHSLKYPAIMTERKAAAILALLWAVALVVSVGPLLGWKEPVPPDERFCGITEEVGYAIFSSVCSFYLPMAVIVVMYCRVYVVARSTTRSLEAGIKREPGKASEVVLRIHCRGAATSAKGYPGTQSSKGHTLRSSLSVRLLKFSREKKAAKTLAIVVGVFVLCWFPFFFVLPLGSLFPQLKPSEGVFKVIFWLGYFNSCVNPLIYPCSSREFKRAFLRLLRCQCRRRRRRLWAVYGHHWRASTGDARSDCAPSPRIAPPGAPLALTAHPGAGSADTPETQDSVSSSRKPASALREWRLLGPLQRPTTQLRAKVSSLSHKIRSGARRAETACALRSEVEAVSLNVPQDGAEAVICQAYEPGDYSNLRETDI
T4 sequence (P43140 whole entry): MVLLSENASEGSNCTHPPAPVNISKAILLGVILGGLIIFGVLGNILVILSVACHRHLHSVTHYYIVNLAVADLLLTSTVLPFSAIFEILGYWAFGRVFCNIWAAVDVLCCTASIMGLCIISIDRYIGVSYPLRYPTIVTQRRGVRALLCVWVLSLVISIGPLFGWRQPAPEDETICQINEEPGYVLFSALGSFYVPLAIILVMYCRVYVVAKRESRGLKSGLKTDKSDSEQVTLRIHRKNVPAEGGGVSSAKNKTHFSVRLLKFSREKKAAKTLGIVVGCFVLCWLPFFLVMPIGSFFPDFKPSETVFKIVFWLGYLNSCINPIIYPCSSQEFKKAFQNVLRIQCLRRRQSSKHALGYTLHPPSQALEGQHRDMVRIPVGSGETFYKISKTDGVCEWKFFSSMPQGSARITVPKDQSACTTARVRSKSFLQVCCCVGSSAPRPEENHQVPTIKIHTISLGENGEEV

[7] = In vitro oral metabolic bioavailability after incubation with hepatic microsomes; assay type: ADME, Liver; details: read-out: MF
[8] = target: T2, 5-hydroxytryptamine receptor 1A (Rattus norvegicus); experiment: Antagonistic activity at postsynaptic 5-hydroxytryptamine 1A receptor was measured by its ability to inhibit hypothermia elicited by s.c. administration of 8-OH-DPAT in rat;ranges from (0.20-1.80); assay type: functional, organism-based
[9] = target: T2, 5-hydroxytryptamine receptor 1A (Rattus norvegicus); experiment: Antagonistic activity at postsynaptic 5-hydroxytryptamine 1A receptor was measured by its ability to inhibit hypothermia elicited by s.c. administration of 8-OH-DPAT in rat;ranges from (0.45-4.51); assay type: functional, organism-based
[10] = target: T2, 5-hydroxytryptamine receptor 1A (Rattus norvegicus); experiment: Antagonistic activity at postsynaptic 5-hydroxytryptamine 1A receptor was measured by its ability to inhibit hypothermia elicited by s.c. administration of 8-OH-DPAT in rat;ranges is not computable; assay type: functional, organism-based
[11] = target: T2, 5-hydroxytryptamine receptor 1A (Rattus norvegicus); experiment: Antagonistic activity at postsynaptic 5-hydroxytryptamine 1A receptor was measured by its ability to inhibit hypothermia elicited by s.c. administration of 8-OH-DPAT in rat;ranges from (0.50-5.30); assay type: functional, organism-based
[12] = target: T2, 5-hydroxytryptamine receptor 1A (Rattus norvegicus); experiment: Antagonistic activity at postsynaptic 5-hydroxytryptamine 1A receptor was measured by its ability to inhibit hypothermia elicited by s.c. administration of 8-OH-DPAT in rat;ranges from (2.20-30.5); assay type: functional, organism-based
[13] = target: T2, 5-hydroxytryptamine receptor 1A (Rattus norvegicus); experiment: Antagonistic activity at postsynaptic 5-hydroxytryptamine 1A receptor was measured by its ability to inhibit hypothermia elicited by s.c. administration of 8-OH-DPAT in rat;ranges from (0.20-1.60); assay type: functional, organism-based
[14] = target: T2, 5-hydroxytryptamine receptor 1A (Rattus norvegicus); experiment: Antagonistic activity at postsynaptic 5-HT1A receptor was measured by its ability to inhibit hypothermia elicited by s.c. administration of 8-OH-DPAT in rat;ranges from (.26-3.52); assay type: functional, organism-based

## COc1ccc2c(c1)C[C@@H](N1CCN(c3cccc4c3OCCO4)CC1)[C@@H]2O (racemic)
[1]
  Efficacy: 21%
[2]
  ID50: 0.72 mg/kg
[3]
  Ratio: 224

## O[C@@H]1c2ccccc2C[C@H]1N1CC=C(c2cccc3c2OCCO3)CC1 (relative stereo)
[4]
  Ki: 0.832 nM
[5]
  ID50: 1.3 mg/kg
[6]
  Log Ki: -7
[3]
  Ratio: 120
[7]
  Fh: 4%

## COc1ccc2c(c1)[C@@H](O)[C@H](N1CCC(c3cccc4c3OCCO4)CC1)C2 (relative stereo)
[4]
  Ki: 1.1 nM
[8]
  ID50: 0.6 mg/kg
[6]
  Log Ki: -7.22
[3]
  Ratio: 55

## O[C@@H]1c2ccc(F)cc2C[C@H]1N1CCN(c2cccc3c2OCCO3)CC1 (racemic)
[9]
  ID50: 1.42 mg/kg
[3]
  Ratio: 562

## O[C@@H]1c2cc(F)c(F)cc2C[C@H]1N1CCN(c2cccc3c2OCCO3)CC1 (relative stereo)
[4]
  Ki: 2.14 nM
[6]
  Log Ki: -6.15
[10]
  ID50: 2.5 mg/kg
[3]
  Ratio: 332
[7]
  Fh: 51%

## O[C@@H]1c2ccc(F)cc2C[C@H]1N1CC=C(c2cccc3c2OCCO3)CC1 (relative stereo)
[4]
  Ki: 0.851 nM
[11]
  ID50: 1.7 mg/kg
[6]
  Log Ki: -6.96
[3]
  Ratio: 128
[7]
  Fh: 8%

## O=[N+]([O-])c1ccc2c(c1)[C@@H](O)[C@H](N1CCC(c3cccc4c3OCCO4)CC1)C2 (relative stereo)
[4]
  Ki: 0.288 nM
[6]
  Log Ki: -6.95
[12]
  ID50: 8.1 mg/kg
[3]
  Ratio: 389
[7]
  Fh: 22%

## O[C@@H]1c2ccccc2C[C@H]1N1CCC(c2cccc3c2OCCO3)CC1 (relative stereo)
[13]
  ID50: 0.5 mg/kg
[4]
  Ki: 0.708 nM
[6]
  Log Ki: -7.1
[3]
  Ratio: 112
[7]
  Fh: 7%

## O[C@@H]1c2ccccc2C[C@H]1N1CCN(c2cccc3c2OCCO3)CC1 (relative stereo)
[4]
  Ki: 1.62 nM
[14]
  ID50: 0.96 mg/kg
[6]
  Log Ki: -6.03
[1]
  Efficacy: 52%
[3]
  Ratio: 575
[7]
  Fh: 21%
